Measured values taken from US9115151B2, “Substituted 2,10-dihydro-9-oxa-1,2,4A-triazaphenanthren-3-ones and uses thereof” (AbbVie Inc., priority 2012, dated 2015).
Where a name gives a salt, the structure may show the parent alone.

Key:
[1] = target: T1, PKCθ (Homo sapiens, UniProt Q04759); experiment: In vitro enzyme assay (time-resolved fluorescence kinase assay), PKCθ, 100 μM ATP; type: biochemical
T1 construct: His6; purchased Millipore; host or cells: baculovirus in Sf21 cells
Method in brief: (§1)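 Read-out was time-resolved fluorescence, corrected for a minus-enzyme blank and converted to percent activity relative to enzyme without drug. They were stopped with EDTA.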

[2] = test system: CD3/CD28 induced IL-2 in human T-Blasts; experiment: T-Blasts CD3/CD28 induced IL-2 assay; type: cell-based; settings: read-out: CD3/CD28-stimulated IL2 in T-blasts EC50
Method in brief: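 PHA-generated human T-blasts, 2×10^5 per well, preincubated 30 min with 8-point 1/3 compound dilutions in duplicate, then stimulated with anti-CD3+anti-CD28 (5 μg/mL final) for 24 h at 37° C. Supernatant IL-2 measured; MTT toxicity run on remaining cells.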

[3] = target: T2, PKCα (Homo sapiens, UniProt P17252); experiment: In vitro enzyme assay (time-resolved fluorescence kinase assay), PKCα, 100 μM ATP; type: biochemical; settings: 100 μM ATP; read-out: PKCα enzyme IC50
T2 construct: His6; purchased Millipore; host or cells: baculovirus in Sf21 cells
Method in brief: as §1

T1 sequence (Q04759 whole entry): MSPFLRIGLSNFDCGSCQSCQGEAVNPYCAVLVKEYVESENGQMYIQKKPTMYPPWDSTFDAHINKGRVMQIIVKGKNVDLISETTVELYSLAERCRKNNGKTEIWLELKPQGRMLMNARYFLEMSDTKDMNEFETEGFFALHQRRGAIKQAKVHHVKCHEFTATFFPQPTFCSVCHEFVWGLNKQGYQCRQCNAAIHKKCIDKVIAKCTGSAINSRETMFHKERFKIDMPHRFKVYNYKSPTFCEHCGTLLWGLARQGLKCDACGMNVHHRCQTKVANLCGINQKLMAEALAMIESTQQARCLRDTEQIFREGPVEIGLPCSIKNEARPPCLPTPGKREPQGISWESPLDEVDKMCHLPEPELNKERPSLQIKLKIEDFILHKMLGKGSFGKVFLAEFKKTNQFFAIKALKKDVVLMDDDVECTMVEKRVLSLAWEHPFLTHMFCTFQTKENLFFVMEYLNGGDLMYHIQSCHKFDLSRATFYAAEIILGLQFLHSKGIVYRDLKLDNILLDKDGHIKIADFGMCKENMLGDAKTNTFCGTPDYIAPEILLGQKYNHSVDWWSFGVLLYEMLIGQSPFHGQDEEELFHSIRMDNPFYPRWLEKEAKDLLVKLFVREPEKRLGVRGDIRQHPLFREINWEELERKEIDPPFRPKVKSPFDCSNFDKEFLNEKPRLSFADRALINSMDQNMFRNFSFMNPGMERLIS

Compound	IC50 [1] [nM]	EC50 [2] [nM]	IC50 [3] [nM]
CC1C(=O)NN=C2COc3cc(-c4ccc(C(C)(C)C)cc4)c(NC4CNC4)cc3N21 (racemic) [Example 26]	250 to 1000	< 250	1000 to 10000
COc1ccccc1-c1cc2c(cc1NC1CNC1)N1C(=NNC(=O)C1C)CO2 (racemic) [Example 34]	< 250	250 to 1000	1000 to 10000
C[C@@H]1C(=O)NN=C2COc3cc(-c4ccccc4CO)c([C@@H](C)C4(C)CN(C)C4)cc3N21 [Example 135]	< 250	< 250	250 to 1000
CC1C(=O)NN=C2COc3cc(-c4ccccc4)c(N(C)C4(C)CN(C5COC5)C4)cc3N21 (stereo not drawn) [Example 196]	< 250	1000 to 10000	1000 to 10000
C[C@@H]1C(=O)NN=C2COc3cc(-c4ccccc4F)c(N(C)C4(C)CN(C(=O)C(F)(F)F)C4)cc3N21 [Example 186]	250 to 1000	250 to 1000	1000 to 10000
C[C@@H]1C(=O)NN=C2COc3cc4ccn([C@]5(C)CCNC5)c4cc3N21 [Example 164, (R)-1-Methyl-10-((R)-3-methyl-pyrrolidin-3-yl)-3,5-dihydro-10H-6-oxa-3,4,10,11b-tetraaza-cyclopenta[b]phenanthren-2-one]	< 250	250 to 1000	1000 to 10000
C[C@@H]1CN(C)[C@@H](C)CN1c1cc2c(cc1-c1ccccc1F)OCC1=NNC(=O)[C@@H](C)N12 [Example 246, (R)-7-(2-Fluoro-phenyl)-4-methyl-6-((2R,5S)-2,4,5-trimethyl-piperazin-1-yl)-2,10-dihydro-9-oxa-1,2,4a-triaza-phenanthren-3-one]	< 250	< 250	250 to 1000
Cc1ccc(F)cc1-c1cc2c(cc1NC1CNC1)N1C(=NNC(=O)C1C)CO2 (racemic) [Example 15]	< 250	< 250	1000 to 10000
CCN1CC(C)(N(C)c2cc3c(cc2-c2ccccc2)OCC2=NNC(=O)C(C)N23)C1 (stereo not drawn) [Example 93]	< 250	1000 to 10000	1000 to 10000
C[C@@H]1C(=O)NN=C2COc3cc(-c4ccc(F)cc4)c(NC4CNC4)cc3N21 [Example 9]	< 250	< 250	1000 to 10000
CC1C(=O)NN=C2COc3cc(-c4ccc(C#N)cc4)c(N(C)C4(C)CN(C)C4)cc3N21 (stereo not drawn) [Example 174]	< 250	250 to 1000	1000 to 10000
CC(C)c1cc2c(cc1C1CCNCC1)N1C(=NNC(=O)[C@H]1C)CO2 [Example 208]	< 250	< 250	1000 to 10000
C[C@@H]1C(=O)NN=C2COc3cc(-c4ccccc4CO)c(N(C)C4(C)CN(C)C4)cc3N21 [Example 176]	< 250	< 250	250 to 1000
C[C@@H]1C(=O)NN=C2COc3cc(-c4cccc(CO)c4)c(N(C)C4(C)CN(C)C4)cc3N21 [Example 179]	< 250	< 250	250 to 1000
CC(C)N1CC(C)(N(C)c2cc3c(cc2-c2ccccc2)OCC2=NNC(=O)C(C)N23)C1 (stereo not drawn) [Example 91]	< 250	< 250	250 to 1000
CC1C(=O)NN=C2COc3cc(-c4cccc(COC(C)(C)C)c4)c(NC4CNC4)cc3N21 (racemic) [Example 40]	250 to 1000	250 to 1000	1000 to 10000

Results, then the molecule that gave them:

IC50 [1] [nM]	EC50 [2] [nM]	IC50 [3] [nM]	Compound
< 250	250 to 1000	1000 to 10000	CC1C(=O)NN=C2COc3cc(C(F)(F)F)c(C4CCNCC4)cc3N21 (stereo not drawn) [Example 120, 1-Methyl-9-(piperidin-4-yl)-8-(trifluoromethyl)-3,5-dihydrobenzo[5,6][1,4]oxazino[3,4-c][1,2,4]triazin-2(1H)-one trifluoroacetic acid]
< 250	< 250	250 to 1000	C[C@@H]1C(=O)NN=C2COc3cc(-c4ccccc4Cl)c(NC4CNC4)cc3N21 [Example 2]
< 250	< 250	1000 to 10000	CC1C(=O)NN=C2COc3cc(-c4ccccc4F)c(NC4CNC4)cc3N21 (racemic) [Example 42]
< 250	< 250	250 to 1000	C[C@@H]1C(=O)NN=C2COc3cc4ccn(C5(C)CN(C)C5)c4cc3N21 [Example 160, (R)-10-(1,3-Dimethyl-azetidin-3-yl)-1-methyl-3,5-dihydro-10H-6-oxa-3,4,10,11b-tetraaza-cyclopenta[b]phenanthren-2-one hydrochloride]
< 250	250 to 1000	1000 to 10000	CC1C(=O)NN=C2COc3cc(Br)c(NC4CNC4)cc3N21 (stereo not drawn) [Example 85, 6-(Azetidin-3-ylamino)-7-bromo-4-methyl-2,10-dihydro-9-oxa-1,2,4a-triaza-phenanthren-3-one trifluoroacetic acid]
< 250	< 250	1000 to 10000	C[C@@H]1C(=O)NN=C2COc3cc(-c4ccccc4CO)c(N(C)C4(C)CN(CCO)C4)cc3N21 [Example 195]
< 250	< 250	1000 to 10000	CC(C)Cc1cc2c(cc1NC1CNC1)N1C(=NNC(=O)C1C)CO2 (stereo not drawn) [Example 58]
< 250	250 to 1000	1000 to 10000	CC1C(=O)NN=C2COc3cc(C(F)(F)F)c(C4CCNC(Cc5ccccc5)C4)cc3N21 (stereo not drawn) [Example 116, 9-(2-Benzylpiperidin-4-yl)-1-methyl-8-(trifluoromethyl)-3,5-dihydrobenzo[5,6][1,4]oxazino[3,4-c][1,2,4]triazin-2(1H)-one trifluoroacetic acid]
< 250	< 250	< 250	CC1C(=O)NN=C2COc3cc(C(F)(F)F)c(OC4(C)CNC4)cc3N21 (stereo not drawn) [Example 107, 4-Methyl-6-(3-methyl-azetidin-3-yloxy)-7-trifluoromethyl-2,10-dihydro-9-oxa-1,2,4a-triaza-phenanthren-3-one trifluoroacetic acid]
< 250	< 250	250 to 1000	C[C@@H]1C(=O)NN=C2COc3cc(-c4ccccc4F)c(N(C)[C@]4(C)CCN(C)C4)cc3N21 (single isomer, unassigned) [Example 198-4]
< 250	< 250	1000 to 10000	Cc1ccc(-c2cc3c(cc2NC2CNC2)N2C(=NNC(=O)C2C)CO3)c(F)c1 (racemic) [Example 12]
< 250	< 250	1000 to 10000	CC(C)c1cc2c(cc1[C@@H]1CCNC[C@@H]1C)N1C(=NNC(=O)[C@H]1C)CO2 [Example 202]
< 250	250 to 1000	1000 to 10000	C[C@@H]1C(=O)NN=C2COc3cc4c(cc3N21)N([C@H]1CCNC1)CC4 [Example 154, (R)-1-Methyl-10-(S)-pyrrolidin-3-yl-3,5,9,10-tetrahydro-8H-6-oxa-3,4,10,11b-tetraaza-cyclopenta[b]phenanthren-2-one hydrochloric acid]
